Measurements from patent US20260055118A1, “VISIBLE LIGHT SENSITIVE PHOTOREMOVABLE PROTECTING GROUPS, PREPARATION PROCESS THEREOF, PHOTOACTIVATABLE CONJUGATES COMPRISING THEM AND USES THEREOF” (HUN-REN TERMÉSZETTUDOMÁNYI KUTATÓKÖZPONT, priority 2022, published 2026).

Assays:
[1] = Uncaging quantum yield determination relative to BODIPY reference; format: physicochemical; conditions: for ε × Φu, uncaging cross-section / quantum efficiency: at the wavelength in parentheses beside each value (538-660 nm); for Φu, uncaging quantum yield: calculated from active agent release; for Φu, uncaging quantum yield / Φdeg, degradation quantum yield: green light irradiation; for Φdeg, degradation quantum yield: calculated from the disappearance of the target conjugate
Procedure: The relative photochemical quantum yields of the uncaging reactions together with the degradation quantum yields were determined from the results of the quantitative HPLC-UV experiments. In all cases, green light irradiation was used since all target conjugates absorbed in this range as well as the reference BODIPY. The photochemical quantum yields were determined using the following equation:
[formula] • where • Φu is the photochemical quantum yield of the sample • Φu,ref is the photochemical quantum yield of the reference • k is the obtained reaction rate constant of the photoreaction of the sample • kref is the obtained reaction rate constant of the photoreaction of the reference • c is the concentration of the sample • cref is the concentration of the reference • V is the volume of the sample • Vref is the volume of the reference • a is the absorption correction factor of the sample • aref is the absorption correction factor of the reference
The absorption correction factors (a) were determined from the molar absorption coefficients and the green LED emission data obtained by the fluorimeter. […] In other words, the transmittance at each wavelength together with the emission data of the light source can be used to calculate the percentage of absorbed photons according to the following equation:
[formula] • where • T(λ) is the transmittance at each wavelength (determined from the molar absorption coefficients) • F(λ) is the LED emission at each wavelength • λmin, λmax is the LED emission range.
The rate constants of the photoreactions were determined by considering the reactions monoexponential with an initial linear phase (up to 10-20% degradation). First, the concentration vs. HPLC-UV peak were determined for each cargo moieties. […] The rate constants were determined for both the reference (with known Φu) and the sample. For reference, a commonly known BODIPY derivative was used with a similar phenylacetic acid-derived cargo unit (substrate 7 from REF^40), Φu=0.15%:
The calculated photochemical quantum yields together with uncaging cross-sections or quantum efficiencies (product of the molar absorption coefficient at a given wavelength, shown in parentheses and the photochemical quantum yield) are shown in Table 2. In the table, Φu is the photochemical quantum yield of the release; Φdeg is the photochemical quantum yield of degradation; ε×Φu is the uncaging cross-section or quantum efficiency of the release at a given wavelength in parentheses.

[2] = Spectroscopic properties of the target conjugates in PBS; format: physicochemical; conditions: for ε (molar absorption coefficient): at the absorption maximum
Procedure: All starting materials were obtained from commercial suppliers and used without further purification. Analytical thin-layer chromatography (TLC) was performed on silica gel 60 F254 precoated aluminum TLC plates from Merck. Flash column chromatography was performed on Teledyne Isco CombiFlash® Rf+ automated flash chromatographer with silica gel (25-40 μm) from Zeochem. NMR spectra were recorded on a Varian Inova 500 MHz spectrometer. Chemical shifts (δ) are given in parts per million (ppm) using solvent signals or TMS as the reference. Coupling constants (J) are reported in Hertz (Hz). Analytical RP-HPLC-UV/Vis-MS measurements were employed using a Shimadzu LCMS-2020 instrument applying a Gemini C18 column (100×2.00 mm I.D.) in which the stationary phase is […] with a pore size of 110 Å. The chromatograms were detected by a UV-Vis diode array (190-800 nm) and an ESI-MS detector. The following linear gradient elution profile was applied, 0 min 0% B; 6.5 min 100% B; 7 min 0% B; 8 min. 0% B) with eluent A (2% HCOOH, 5% MeCN and 93% water) and B (2% HCOOH, 80% MeCN and 18% water) at a flow rate of 1.0 mL min-1 at 30° C. The samples were dissolved in MeCN—water mixtures. Spectroscopic measurements were performed on a Jasco FP 8300 spectrofluorometer. Quartz cuvettes with path length of 1 cm were used.
The spectroscopic properties of the target conjugates were determined in PBS. […] Compounds with Q=O have absorption bands in the green-yellow region while Q=CMe2 derivatives absorb in the red (up to 700 nm). All of the compounds have moderate to high absorption coefficients and significant fluorescence. The spectroscopic details can be found in Table 1. In the table, λmax means absorption maximum; λem means fluorescence emission maximum; s means molar absorption coefficient (at the absorption maximum).

[3] = Uncaging experiments, LED irradiation followed by HPLC-UV-MS; format: physicochemical
Procedure: The uncaging experiments were performed using green (4 W input power, λmax=549 nm half-width: 16 nm, output power: 72 mW), orange (4 W input power, λmax=605 nm half-width: 10 nm, output power: 140 mW) and red (4 W input power, λmax=658 nm half-width: 10 nm, output power: 210 mW) LEDs as light source. Sample solutions were prepared, each containing 1 ml of solvent (90% v/v water-MeCN or 90% PBS-MeCN or 100% methanol for the photochemical quantum yield determination) and 0.1 mM or 0.05 mM concentration of the photoactivatable conjugates. The samples were irradiated for a given time using continuous water cooling for the light source. Then, the samples were transferred to the HPLC-UV-MS system and the chromatograms were recorded. The traces at 195 nm, 254 nm or 369 nm (dependent on the cargo moieties) and at the absorption maxima of the photoremovable protecting groups (530 nm, 570 nm or 640 nm) were compared and the corresponding peaks were integrated and compared to reference calibration sets. The possible photoproducts were identified by their corresponding m/z value and also from the UV/VIS spectra from the DAD-equipped instrument. For the dark stability experiments, the HPLC sample solutions were kept in the dark and chromatograms were recorded multiple times.
The photouncaging was evaluated by HPLC-MS using green (4 W input power, λmax=549 nm half-width: 16 nm, output power: 72 mW), orange (4 W input power, λmax=605 nm half-width: 10 nm, output power: 140 mW) and red (4 W input power, λmax=658 nm half-width: 10 nm, for Q=CMe2 output power: 210 mW) LED irradiation. For all compounds the experiments were performed in 90% water/MeCN mixtures as well as in 90% PBS/MeCN (0.1 mM concentration). In all cases, the irradiation led to the release of the model active agents with significant differences based on the photoremovable protecting group, cargo unit and the connecting chemical moiety as well as on the water content of the uncaging medium. Comparing the green light absorbing target conjugates, irradiation of 39 led to the release of 54% phenylacetic acid in 60 s (FIG. 6b), while 180 s (for 50%) was required for the same result in case of 41. Approximately 65% of phenylacetic acid was released after 180 s of irradiation with orange light from model target conjugate 41 (FIG. 6a). The current state of the art BODIPY derivative (for the structure, see the next section),^20,21 released only 12% phenylacetic acid after irradiation for 1800 s. Contrary to the general expectations that increasing the wavelength diminishes photolysis rates, the uncaging of the redshifted Q=CMe2 derivative 43 was also very effective, reaching >70% release of phenylacetic acid in 120 s after red light irradiation (FIG. 6c). The high efficiency of 43 as a red light-activatable photoremovable protecting group was also compared to a π-extended BODIPY derivative (substrate 7 in REF^21, using methanol as the solvent in a concentration of 0.1 mM), the current state of the art in this region of visible light.
Importantly, except in the case of compounds wherein the connecting chemical moiety was a carbonate moiety (i.e., compound 51, FIG. 6f), the target conjugates were stable in water as well as in PBS for 24 hours in the dark. The stability and uncaging rates of several leaving groups was also assessed. Comparing the most important functional groups (carboxylic acid, amine, phenol, alcohol) in potential active agents connected via the typical linkages in the target conjugates, the carbonate bond was the most labile (compound 51, >70% decomposition in 30 s with red light at 50% power) although the long-term dark stability was poor. None of the other model active agents were released in significant quantities, however, after 24-28 hours in the dark (for dark stability data see FIGS. 6a-6h, right side).
Using HPLC-MS, not only the appearance of the released model active agents could be monitored but also the products of photolysis were detectable. […]

SK-OV-3 cells = test: Cytotoxicity determination, MTT assay, with light irradiation and in the dark; format: cell-based, human; conditions: for cell viability: DARK
Procedure: A viability test was carried out to assess the toxicity of SN38 as well as the photoremovable protecting group-SN38 conjugates X1′-SN38 and X2′-SN38 after light irradiation and in the dark on SKOV3 cells. Cells were transferred into a 48-well plate (Thermo Fisher Scientific, 130187) (4,500 cells/well) and incubated for 20-24 h at 37° C. in a 5% CO2 atmosphere in McCoy's 5A (Modified) Medium, HEPES (Gibco 22330021) supplemented with 10% FBS (Gibco 10500-064), 1% penicillin-streptomycin (Gibco 15140-122). Cells were treated with compounds in the concentration range of 10^−11-10^−4 M for 90 min followed by light irradiation or kept in the dark at 37° C. in 5% CO2 atmosphere. After treatment and irradiation, cells were kept at 37° C. in 5% CO2 atmosphere for 72 hours. After the incubation period, supernatants were replaced with 0.5 mg/ml MTT (3-(4,5-dimethylthiazol-2-yl)-2,5-diphenyltetrazolium bromide; Sigma M5655-1G) solution (in complete DMEM: Dulbecco's modified Eagle's medium (DMEM, Gibco 41965-039), supplemented with 10% FBS (Gibco 10500-064), 1% penicillin-streptomycin (Gibco 15140-122), 1% Glutamax (Gibco 35050-061) and 1% sodium pyruvate (Life Technologies, Gibco 11360-070)) and incubated for 120 min at 37° C. in the dark. The insoluble formazan crystals were dissolved in 250 μl DMSO. Absorbance was detected at 540 nm using a Biotek Synergy 2 Cytation 3 imaging plate reader with Gen5 software version 3.08 (Biotek Winooski, VT, USA). Viability was expressed as percentage (n=3) of the readings of untreated control cells.
To determine phototoxic properties of compounds X1′-SN38 and X2′-SN38, standard MTT assays were performed on SK—OV-3 cells. To irradiate multiple specimens, an LED panel was custom-made for a 48-well plate consisting of 24 LEDs using green (4 W input power, λmax=549 nm half-width: 16 nm, output power: 72 mW), orange (4 W input power, λmax=605 nm half-width: 10 nm, output power: 140 mW) and red (4 W input power, λmax=658 nm half-width: 10 nm, for Q=CMe2 output power: 210 mW) LED irradiation. The board was specifically designed for the plates and offer water cooling to minimize heat shock to cells. Every second well can be irradiated with an individual LED. First, the cytotoxicity of the free active agent, SN38 was determined to be EC50 ^˜6 nM. Treatment of cells with the photoactivatable SN38 derivatives for 72 hours in the absence of light (without washing) produced moderate cytotoxic effects, sigificantly lowering the effectiveness of the active agent. This confirms that SN38 is a suitable candidate for light-activated prodrug applications. […] Reducing the irradiation time down to 10 s still produced significant phototoxicity in higher concentrations (see FIG. 8a for compound X2′-SN38) even assuming incomplete uncaging as a result of the substantial dark stability of compound X2′-SN38.

SMILES | ε × Φu, uncaging cross-section / quantum efficiency [1] [M⁻¹ cm⁻¹] | Φu, uncaging quantum yield [1] [%] | Φdeg, degradation quantum yield [1] [%] | λem (fluorescence emission maximum) [2] [nm] | λmax (absorption maximum) [2] [nm] | ε (molar absorption coefficient) [2] | irradiation time required for 50% release of phenylacetic acid ([3]; green light) [s] | release of phenylacetic acid ([3]; orange light, 180 s) | cell viability (SK-OV-3 cells; 50 nM) [%] | cell viability (SK-OV-3 cells; 100 nM) [%] | cell viability (SK-OV-3 cells; 200 nM) [%] | EC50 (SK-OV-3 cells; dark, 72 h, MTT, read-out: Dark EC50 values) [nM]
CC(OC(=O)Cc1ccccc1)c1c2ccc(=[N+]3CCCC3)cc-2oc2cc(N3CCCC3)ccc12.[I-] (stereo not drawn) [Compound 41, 1-(9-(1-(2-phenylacetoxy)ethyl)-6-(pyrrolidin-1-yl)-3H-xanthen-3-ylidene)pyrrolidin-1-ium iodide] | 1020 | 1.5 | 1.9 | 592 | 570 | 70 000 M^−1cm^−1 | 180 | Approximately 65% |  |  |  | 
CC(OC(=O)N1CCN(c2ccccc2)CC1)C1=C2C=CC(=[N+]3CCCC3)C=C2C(C)(C)c2cc(N3CCCC3)ccc21 (stereo not drawn) [Compound 49, 1-(9,9-dimethyl-10-(1-((4-phenylpiperazine-1-carbonyl)oxy)ethyl)-7-(pyrrolidin-1-yl)anthracen-2 (9H)-ylidene)pyrrolidin-1-ium] | 690 | 0.92 | 1.7 | 673 | 637 | 75 100 M^−1cm^−1 |  |  |  |  |  | 
CC(OCc1ccccc1)C1=C2C=CC(=[N+]3CCCC3)C=C2C(C)(C)c2cc(N3CCCC3)ccc21.[I-] (stereo not drawn) [Compound 35, 1-(10-(1-(benzyloxy)ethyl)-9,9-dimethyl-7-(pyrrolidin-1-yl)anthracen-2 (9H)-ylidene)pyrrolidin-1-ium iodide] |  |  |  | 659 | 635 | 81 200 M^−1cm^−1 |  |  |  |  |  | 
CCc1c2c(nc3ccc(O)cc13)-c1cc3c(c(=O)n1C2)COC(=O)[C@]3(O)CC [SN38, 7-ethyl-10-hydroxycamptothecin, reference compound] |  |  |  |  |  |  |  |  | 29 | 27 | 30 | 6.2
CC[N+]1=c2cc3c(cc2C(C)CC1(C)C)=C(C(C)OC(=O)Cc1ccccc1)c1cc2c4c(c1C3(C)C)CCCN4CCC2 (stereo not drawn) [Compound 45] | 1390 | 1.6 | 2.6 | 680 | 660 | 83 800 M^−1cm^−1 |  |  |  |  |  | 
